From ChEMBL document CHEMBL1135098, “Design, synthesis and evaluation of substituted phenylpropanoic acid derivatives as peroxisome proliferator-activated receptor (PPAR) activators: novel human PPARalpha-selective activators” (Bioorg Med Chem Lett, 2002)

Experiments:
[1] = biological target: T1, Peroxisome proliferator-activated receptor gamma (Homo sapiens, UniProt P37231); assay: […] of human Peroxisome proliferator activated receptor gamma in CHO-K1 cells;ia means inactive at 10 uM; assay type: cell-based
T1 sequence (P37231 whole entry): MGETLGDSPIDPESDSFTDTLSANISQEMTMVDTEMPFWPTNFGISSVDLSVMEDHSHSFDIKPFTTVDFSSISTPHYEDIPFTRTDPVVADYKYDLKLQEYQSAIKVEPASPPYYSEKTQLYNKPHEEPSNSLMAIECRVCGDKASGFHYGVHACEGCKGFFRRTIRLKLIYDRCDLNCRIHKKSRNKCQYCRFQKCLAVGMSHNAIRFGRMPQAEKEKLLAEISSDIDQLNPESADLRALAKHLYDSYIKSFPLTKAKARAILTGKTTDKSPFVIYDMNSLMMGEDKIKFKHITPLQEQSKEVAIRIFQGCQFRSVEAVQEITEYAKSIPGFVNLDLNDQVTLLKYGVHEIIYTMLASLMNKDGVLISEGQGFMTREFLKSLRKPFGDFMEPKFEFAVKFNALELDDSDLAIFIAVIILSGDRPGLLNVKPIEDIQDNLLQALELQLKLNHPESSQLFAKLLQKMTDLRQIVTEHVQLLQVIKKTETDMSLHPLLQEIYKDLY

[2] = biological target: T2, Peroxisome proliferator-activated receptor alpha (Homo sapiens, UniProt Q07869); assay: Concentration of compound that affords half-maximum transactivation of human Peroxisome proliferator activated receptor alpha in CHO-K1 cells was determined in vitro;ia means inactive at 10 uM; assay type: cell-based
T2 sequence (Q07869 whole entry): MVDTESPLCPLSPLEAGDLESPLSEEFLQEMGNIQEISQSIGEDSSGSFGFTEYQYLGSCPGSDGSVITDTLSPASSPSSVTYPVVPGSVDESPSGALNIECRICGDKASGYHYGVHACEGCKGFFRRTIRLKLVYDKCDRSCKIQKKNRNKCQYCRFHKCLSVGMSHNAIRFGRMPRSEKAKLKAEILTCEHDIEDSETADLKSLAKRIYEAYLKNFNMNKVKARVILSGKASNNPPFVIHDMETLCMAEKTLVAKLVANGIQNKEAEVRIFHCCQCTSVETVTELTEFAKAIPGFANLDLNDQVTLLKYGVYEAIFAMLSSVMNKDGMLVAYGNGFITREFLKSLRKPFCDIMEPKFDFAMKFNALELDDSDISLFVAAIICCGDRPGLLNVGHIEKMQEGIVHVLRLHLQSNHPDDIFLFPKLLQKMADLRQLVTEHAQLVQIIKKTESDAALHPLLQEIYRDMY

[3] = biological target: T1, Peroxisome proliferator-activated receptor gamma
Description: Concentration of compound that affords half-maximum transactivation of human Peroxisome proliferator activated receptor gamma in CHO-K1 cells was determined in vitro

[4] = biological target: T2, Peroxisome proliferator-activated receptor alpha; assay: Transactivation of human Peroxisome proliferator activated receptor alpha expressed in CHO-K1 cells; assay type: cell-based

| EC50 [1] | EC50 [2] | Compound | also measured |
| --- | --- | --- | --- |
| Not Active |  | COc1ccc(CC(C(=O)O)C(C)C)cc1C(=O)NCc1ccc(C(F)(F)F)cc1 (stereo not drawn) |  |
| Not Active | Not Active | COc1ccc(CC(=O)O)cc1C(=O)NCc1ccc(C(F)(F)F)cc1 |  |
| Not Active |  | COc1ccc(CC(C)(C)C(=O)O)cc1C(=O)NCc1ccc(C(F)(F)F)cc1 |  |
| Not Active |  | COc1ccc(CC(C)C(=O)O)cc1C(=O)NCc1ccc(C(F)(F)F)cc1 (stereo not drawn) |  |
| Not Active |  | CCCC(Cc1ccc(OC)c(C(=O)NCc2ccc(C(F)(F)F)cc2)c1)C(=O)O (stereo not drawn) |  |
| Not Active |  | COc1ccc(CC(OC)C(=O)O)cc1C(=O)NCc1ccc(C(F)(F)F)cc1 (stereo not drawn) |  |

Second part, the compound before the results:

| Compound | EC50 [1] | EC50 [2] | also measured |
| --- | --- | --- | --- |
| COc1ccc(CCC(=O)O)cc1C(=O)NCc1ccc(C(F)(F)F)cc1 | Not Active |  |  |
| COc1ccc(C(=O)O)cc1C(=O)NCc1ccc(C(F)(F)F)cc1 | Not Active | Not Active |  |
| COc1ccc(CCCC(=O)O)cc1C(=O)NCc1ccc(C(F)(F)F)cc1 |  |  | EC50 [3]: 3 µM; EC50 [4]: 2200 nM |
| COc1ccc(CC(Oc2ccccc2)C(=O)O)cc1C(=O)NCc1ccc(C(F)(F)F)cc1 (stereo not drawn) | Not Active | Not Active |  |
| COc1ccc(CC(C(=O)O)c2ccccc2)cc1C(=O)NCc1ccc(C(F)(F)F)cc1 (stereo not drawn) | Not Active | Not Active |  |
| CCC(CC)(Cc1ccc(OC)c(C(=O)NCc2ccc(C(F)(F)F)cc2)c1)C(=O)O | Not Active |  |  |
| CC(C)(Oc1ccc(CCNC(=O)c2ccc(Cl)cc2)cc1)C(=O)O [BEZAFIBRATE] |  |  | EC50 [3]: > 137 µM |
